*1 amine or outer side, *2 acyl side, *3 side chain or, on linkers, in order; H or OH if unused. Where a SMILES comes first, the peptide text is derived from it. Bridges are numbered along the chain shown (N, C = ends). [ ]: non-standard residue; d: D form. The star is where a group is joined. hPhe(3-Cl-4-CF3) = N[C@@H](CCc1ccc(C(F)(F)F)c(Cl)c1)C(=O)O; NPrPhe(4-CF3) = CCCN[C@@H](Cc1ccc(C(F)(F)F)cc1)C(=O)O; NEtAsp = CCN([C@@H](CC(=O)[*:3])C(=O)[*:2])[*:1]; NMeGly(cPent) = CN[C@H](C(=O)O)C1CCCC1; Ac4c(3,3-Me2) = CC1(C)CC(N)(C(=O)O)C1; NEtLeu = CCN[C@@H](CC(C)C)C(=O)O; NMeD = CN[C@@H](CC(=O)O)C(=O)O; NMeL = CN[C@@H](CC(C)C)C(=O)O; Morpholide = C1CN(*)CCO1; Ac5c = NC1(C(=O)O)CCCC1; NEtG = CCNCC(=O)O; Sar = CNCC(=O)O; Propyl = CCC*
Experiments:
[1] = molecular target: GDP-bound NRAS wild-type protein (Homo sapiens, UniProt P01111); assay: Binding to NRAS by surface plasmon resonance (SPR), Single Cycle Kinetics; settings: KD ratio, GDP-bound NRAS wild-type vs GDP-bound KRAS wild-type, SPR
[2] = molecular target: GDP-bound HRAS wild-type protein (Homo sapiens, UniProt P01112); assay: Binding to HRAS by surface plasmon resonance (SPR), Single Cycle Kinetics; settings: KD ratio, GDP-bound HRAS wild-type vs GDP-bound KRAS wild-type, SPR
Sequence of GDP-bound HRAS wild-type protein (P01112 whole entry): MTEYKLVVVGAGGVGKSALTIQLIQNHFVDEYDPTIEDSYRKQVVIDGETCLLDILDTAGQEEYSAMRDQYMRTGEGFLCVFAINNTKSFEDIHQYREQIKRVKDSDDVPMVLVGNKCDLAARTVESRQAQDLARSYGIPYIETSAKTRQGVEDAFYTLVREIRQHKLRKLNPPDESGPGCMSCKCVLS

Sequence of GDP-bound NRAS wild-type protein (P01111 whole entry): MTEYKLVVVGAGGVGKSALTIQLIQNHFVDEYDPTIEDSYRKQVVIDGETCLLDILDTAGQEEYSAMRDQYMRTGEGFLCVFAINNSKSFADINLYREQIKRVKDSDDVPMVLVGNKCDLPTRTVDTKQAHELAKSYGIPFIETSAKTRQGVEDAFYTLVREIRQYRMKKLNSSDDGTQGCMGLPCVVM

SMILES | NRAS/KRAS (ratio of KD value for NRAS to KD value for KRAS) [1] | HRAS/KRAS (ratio of KD value for HRAS to KD value for KRAS) [2]
CCCN1C(=O)CN(C)C(=O)CN(C)C(=O)[C@H]([C@@H](C)OCC)NC(=O)[C@H](CC(C)C)N(C)C(=O)C[C@@H](C(=O)N2CCOCC2)N(C)C(=O)[C@H](C2CCCC2)N(C)C(=O)C2(CC(C)(C)C2)NC(=O)[C@@H]2CCCN2C(=O)[C@H](CCc2ccc(C(F)(F)F)c(Cl)c2)NC(=O)CN(C)C(=O)[C@@H]1Cc1ccc(C(F)(F)F)cc1 [PP1964] ([NMeL]T(Et)[Sar][Sar][NPrPhe(4-CF3)][Sar][hPhe(3-Cl-4-CF3)]P[Ac4c(3,3-Me2)][NMeGly(cPent)][NMeD]-Morpholide; lactam N-11) | B (a compound having 3 or more and less than 10 is denoted as B) | B (a compound having 3 or more and less than 10 is denoted as B)
CCCO[C@H](C)[C@@H]1NC(=O)[C@H](CC(C)C)N(C)C(=O)C[C@@H](C(=O)N2CCOCC2)N(C)C(=O)[C@H](C2CCCC2)N(C)C(=O)C2(CC(C)(C)C2)NC(=O)[C@@H]2CCCN2C(=O)[C@H](CCc2ccc(C(F)(F)F)c(Cl)c2)NC(=O)CN(C)C(=O)[C@H](Cc2ccc(C(F)(F)F)cc2)N(CCC)C(=O)CN(C)C(=O)CN(C)C1=O [PP1965] ([NMeL]T(Propyl)[Sar][Sar][NPrPhe(4-CF3)][Sar][hPhe(3-Cl-4-CF3)]P[Ac4c(3,3-Me2)][NMeGly(cPent)][NMeD]-Morpholide; lactam N-11) | B (a compound having 3 or more and less than 10 is denoted as B) | B (a compound having 3 or more and less than 10 is denoted as B)
CCCN1C(=O)CN(C)C(=O)CNC(=O)[C@H]([C@@H](C)CC)NC(=O)[C@H](CC(C)C)N(CC)C(=O)C[C@@H](C(=O)N2CCOCC2)N(C)C(=O)[C@H](C2CCCC2)N(C)C(=O)C2(CCCC2)NC(=O)[C@@H]2CCCN2C(=O)[C@H](CCc2ccc(C(F)(F)F)c(Cl)c2)NC(=O)CN(C)C(=O)[C@@H]1Cc1ccc(C(F)(F)F)cc1 [PP1967] ([NEtLeu]IG[Sar][NPrPhe(4-CF3)][Sar][hPhe(3-Cl-4-CF3)]P[Ac5c][NMeGly(cPent)][NMeD]-Morpholide; lactam N-11) | B (a compound having 3 or more and less than 10 is denoted as B) | B (a compound having 3 or more and less than 10 is denoted as B)
CCCN1C(=O)CN(CC)C(=O)CNC(=O)[C@H]([C@@H](C)CC)NC(=O)[C@H](CC(C)C)N(C)C(=O)C[C@@H](C(=O)N2CCOCC2)N(C)C(=O)[C@H](C2CCCC2)N(C)C(=O)C2(CCCC2)NC(=O)[C@@H]2CCCN2C(=O)[C@H](CCc2ccc(C(F)(F)F)c(Cl)c2)NC(=O)CN(C)C(=O)[C@@H]1Cc1ccc(C(F)(F)F)cc1 [PP1968] ([NMeL]IG[NEtG][NPrPhe(4-CF3)][Sar][hPhe(3-Cl-4-CF3)]P[Ac5c][NMeGly(cPent)][NMeD]-Morpholide; lactam N-11) | C (A compound having a KD ratio of 0.1 or more and less than 3 is denoted as C) | C (A compound having a KD ratio of 0.1 or more and less than 3 is denoted as C)
CCCN1C(=O)CN(C)C(=O)CNC(=O)[C@H]([C@@H](C)CC)NC(=O)[C@H](CC(C)C)N(C)C(=O)C[C@@H](C(=O)N2CCOCC2)N(C)C(=O)[C@H](C2CCCC2)N(C)C(=O)C2(CCCC2)NC(=O)[C@@H]2CCCN2C(=O)[C@H](CCc2ccc(C(F)(F)F)c(Cl)c2)NC(=O)CN(CC)C(=O)[C@@H]1Cc1ccc(C(F)(F)F)cc1 [PP1969] ([NMeL]IG[Sar][NPrPhe(4-CF3)][NEtG][hPhe(3-Cl-4-CF3)]P[Ac5c][NMeGly(cPent)][NMeD]-Morpholide; lactam N-11) | B (a compound having 3 or more and less than 10 is denoted as B) | C (A compound having a KD ratio of 0.1 or more and less than 3 is denoted as C)
CCCN1C(=O)CN(C)C(=O)CNC(=O)[C@H]([C@@H](C)CC)NC(=O)[C@H](CC(C)C)N(C)C(=O)C[C@@H](C(=O)N2CCOCC2)N(CC)C(=O)[C@H](C2CCCC2)N(C)C(=O)C2(CCCC2)NC(=O)[C@@H]2CCCN2C(=O)[C@H](CCc2ccc(C(F)(F)F)c(Cl)c2)NC(=O)CN(C)C(=O)[C@@H]1Cc1ccc(C(F)(F)F)cc1 [PP1970] ([NMeL]IG[Sar][NPrPhe(4-CF3)][Sar][hPhe(3-Cl-4-CF3)]P[Ac5c][NMeGly(cPent)][NEtAsp]-Morpholide; lactam N-11) | B (a compound having 3 or more and less than 10 is denoted as B) | B (a compound having 3 or more and less than 10 is denoted as B)
CCCN1C(=O)CN(C)C(=O)[C@H](C)NC(=O)[C@H]([C@@H](C)CC)NC(=O)[C@H](CC(C)C)N(C)C(=O)C[C@@H](C(=O)N2CCOCC2)N(C)C(=O)[C@H](C2CCCC2)N(C)C(=O)C2(CCCC2)NC(=O)[C@@H]2CCCN2C(=O)[C@H](CCc2ccc(C(F)(F)F)c(Cl)c2)NC(=O)CN(C)C(=O)[C@@H]1Cc1ccc(C(F)(F)F)cc1 [PP1971] ([NMeL]IA[Sar][NPrPhe(4-CF3)][Sar][hPhe(3-Cl-4-CF3)]P[Ac5c][NMeGly(cPent)][NMeD]-Morpholide; lactam N-11) | B (a compound having 3 or more and less than 10 is denoted as B) | B (a compound having 3 or more and less than 10 is denoted as B)
CC[C@H](C)[C@@H]1NC(=O)[C@H](CCOC)N(C)C(=O)C[C@@H](C(=O)N(C)CC)N(C)C(=O)[C@H](C2CCCC2)N(C)C(=O)C2(CC(C)(C)C2)NC(=O)[C@@H]2C[C@H](C)CN2C(=O)[C@H](CCc2cc(F)c(C(F)(F)F)c(F)c2)NC(=O)CN(C)C(=O)[C@H](Cc2ccc(C(F)(F)F)cc2)N2CC/C=C\C[C@@H](C2=O)N(C)C(=O)CN(C)C1=O [PP1972] | A (a compound having 10 or more and less than 20 is denoted as A) | A (a compound having 10 or more and less than 20 is denoted as A)
CCCOC[C@H]1C(=O)N[C@@H]([C@@H](C)CC)C(=O)N(C)CC(=O)N(C)[C@H]2C/C=C\CCN(C2=O)[C@@H](Cc2ccc(C(F)(F)F)cc2)C(=O)N(C)CC(=O)N[C@@H](CCc2ccc(C(F)(F)F)c(OC)c2)C(=O)N2C[C@H](OCC)C[C@H]2C(=O)NC2(CC(C)(C)C2)C(=O)N(C)[C@@H](C2CCCC2)C(=O)N(C)[C@H](C(=O)N(C)CC)CC(=O)N1C [PP1973] | A (a compound having 10 or more and less than 20 is denoted as A) | B (a compound having 3 or more and less than 10 is denoted as B)
CCCN(C)C(=O)[C@@H]1CC(=O)N(C)[C@@H](CCOC)C(=O)N[C@@H]([C@@H](C)CC)C(=O)N(C)CC(=O)N(C)[C@H]2C/C=C\CCN(C2=O)[C@@H](Cc2ccc(C(F)(F)F)cc2)C(=O)N(C)CC(=O)N[C@@H](CCc2cc(F)c(C(F)(F)F)c(F)c2)C(=O)N2C[C@@H](C)C[C@H]2C(=O)NC2(CC(C)(C)C2)C(=O)N(C)[C@@H](C2CCCC2)C(=O)N1C [PP1974] | A (a compound having 10 or more and less than 20 is denoted as A) | A (a compound having 10 or more and less than 20 is denoted as A)
CCCN(C)C(=O)[C@@H]1CC(=O)N(C)[C@@H](CCOC)C(=O)N[C@@H]([C@@H](C)CC)C(=O)N(C)CC(=O)N(C)[C@H]2C/C=C\CCN(C2=O)[C@@H](Cc2ccc(C(F)(F)F)cc2)C(=O)N(C)CC(=O)N[C@@H](CCc2ccc(C(F)(F)F)c(OC)c2)C(=O)N2C[C@H](OCC)C[C@H]2C(=O)NC2(CC(C)(C)C2)C(=O)N(C)[C@@H](C2CCCC2)C(=O)N1C [PP1975] | A (a compound having 10 or more and less than 20 is denoted as A) | A (a compound having 10 or more and less than 20 is denoted as A)
CC[C@H](C)[C@@H]1NC(=O)[C@H](C(C)C)N(C)C(=O)C[C@@H](C(=O)N(C)CC)N(C)C(=O)[C@H](C2CCCC2)N(C)C(=O)C2(CC(C)(C)C2)NC(=O)[C@@H]2C[C@H](C)CN2C(=O)[C@H](CCc2cc(F)c(C(F)(F)F)c(F)c2)NC(=O)CN(C)C(=O)[C@H](Cc2ccc(C(F)(F)F)cc2)N2CC/C=C\C[C@@H](C2=O)N(C)C(=O)CN(C)C1=O [PP1976] | AA (a compound having 20 or more is denoted as AA) | A (a compound having 10 or more and less than 20 is denoted as A)
CCO[C@@H]1C[C@H]2C(=O)NC3(CC(C)(C)C3)C(=O)N(C)[C@@H](C3CCCC3)C(=O)N(C)[C@H](C(=O)N(C)CC)CC(=O)N(C)[C@@H](C(C)C)C(=O)N[C@@H]([C@@H](C)CC)C(=O)N(C)CC(=O)N(C)[C@H]3C/C=C\CCN(C3=O)[C@@H](Cc3ccc(C(F)(F)F)cc3)C(=O)N(C)CC(=O)N[C@@H](CCc3ccc(C(F)(F)F)c(OC)c3)C(=O)N2C1 [PP1977] | AA (a compound having 20 or more is denoted as AA) | A (a compound having 10 or more and less than 20 is denoted as A)
CCO[C@@H]1C[C@H]2C(=O)NC3(CC(C)(C)C3)C(=O)N(C)[C@@H](C3CCCC3)C(=O)N(C)[C@H](C(=O)N(C)C)CC(=O)N(C)[C@@H](C(C)C)C(=O)N[C@@H]([C@@H](C)CC)C(=O)N(C)CC(=O)N(C)[C@H]3C/C=C\CCN(C3=O)[C@@H](Cc3ccc(C(F)(F)F)cc3)C(=O)N(C)CC(=O)N[C@@H](CCc3ccc(C(F)(F)F)c(OC)c3)C(=O)N2C1 [PP1979] | AA (a compound having 20 or more is denoted as AA) | A (a compound having 10 or more and less than 20 is denoted as A)

Source: patent US20250230193A1, “CYCLIC COMPOUND HAVING SELECTIVE KRAS INHIBITORY EFFECT ON HRAS AND NRAS” (CHUGAI SEIYAKU KABUSHIKI KAISHA, priority 2022, published 2025)
